Results taken from PubChem BioAssay AID2060501 (Molecular Pharmacology Branch, DTP, NCI, 2025).

System: 282377-053-R-J1-PDC complex spheroids, viability
Test: Anticancer human tumor 282377-053-R-J1-PDC patient-derived colon adenocarcinoma cell line growth inhibition [GQUAD]
Settings: for IC50: curve of first compound; for viability, T/C: stronger effect = lower value
Outline: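 Tumor cells were grown as complex spheroids with HUVEC endothelial cells and mesenchymal stem cells as stroma. G-quadruplex stabilizers were combined with targeted agents over half-log dilutions from near the clinical Cmax, or from 10 microM.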

[1] = second compound 0.0316 µM, first compound 0.0316 µM
[2] = second compound 0.0316 µM, first compound 0.1 µM
[3] = second compound 0.0316 µM, first compound 0.316 µM
[4] = second compound 0.0316 µM, first compound 1 µM
[5] = second compound 0.0316 µM, first compound 3.16 µM
[6] = second compound 0.0316 µM, first compound 10 µM
[7] = second compound 0.1 µM, first compound 0.0316 µM
[8] = second compound 0.1 µM, first compound 0.1 µM
[9] = second compound 0.1 µM, first compound 0.316 µM
[10] = second compound 0.1 µM, first compound 1 µM
[11] = second compound 0.1 µM, first compound 3.16 µM
[12] = second compound 0.1 µM, first compound 10 µM
[13] = second compound 0.316 µM, first compound 0.0316 µM
[14] = second compound 0.316 µM, first compound 0.1 µM
[15] = second compound 0.316 µM, first compound 0.316 µM
[16] = second compound 0.316 µM, first compound 1 µM
[17] = second compound 0.316 µM, first compound 3.16 µM
[18] = second compound 0.316 µM, first compound 10 µM
[19] = second compound 1 µM, first compound 0.0316 µM
[20] = second compound 1 µM, first compound 0.1 µM
[21] = second compound 1 µM, first compound 0.316 µM
[22] = second compound 1 µM, first compound 1 µM
[23] = second compound 1 µM, first compound 3.16 µM
[24] = second compound 1 µM, first compound 10 µM
[25] = second compound 3.16 µM, first compound 0.0316 µM
[26] = second compound 3.16 µM, first compound 0.1 µM
[27] = second compound 3.16 µM, first compound 0.316 µM
[28] = second compound 3.16 µM, first compound 1 µM
[29] = second compound 3.16 µM, first compound 3.16 µM
[30] = second compound 3.16 µM, first compound 10 µM
[31] = second compound 10 µM, first compound 0.0316 µM
[32] = second compound 10 µM, first compound 0.1 µM
[33] = second compound 10 µM, first compound 0.316 µM
[34] = second compound 10 µM, first compound 1 µM
[35] = second compound 10 µM, first compound 3.16 µM
[36] = second compound 10 µM, first compound 10 µM
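Also: spheroids exposed to compounds for 7 days before readout.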
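For viability, T/C in this document: percent of vehicle DMSO control viability with 100% = untreated-like growth.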

Structure (SMILES): COc1ncnc(C2CC2)c1-c1ncc2cnn(Cc3ccc(-c4nc(C(F)(F)F)cn4C(C)C)cc3)c2n1 + CN(C)c1ccc(Nc2c3ccc(NC(=O)CCN4CCCC4)cc3nc3cc(NC(=O)CCN4CCCC4)ccc23)cc1
- IC50 (second compound 0.0316 µM): > 10 µM
- IC50 (second compound 0.1 µM): > 10 µM
- IC50 (second compound 0.316 µM): > 10 µM
- IC50 (second compound 1 µM): > 10 µM
- IC50 (second compound 3.16 µM): > 10 µM
- IC50 (second compound 10 µM): > 10 µM
- viability, T/C [1]: 108%
- viability, T/C [2]: 83.7%
- viability, T/C [3]: 95.1%
- viability, T/C [4]: 76.5%
- viability, T/C [5]: 88.1%
- viability, T/C [6]: 66.2%
- viability, T/C [7]: 97.1%
- viability, T/C [8]: 90.2%
- viability, T/C [9]: 102%
- viability, T/C [10]: 87.6%
- viability, T/C [11]: 81.4%
- viability, T/C [12]: 76.7%
- viability, T/C [13]: 88.3%
- viability, T/C [14]: 95.8%
- viability, T/C [15]: 86.6%
- viability, T/C [16]: 78.5%
- viability, T/C [17]: 87.6%
- viability, T/C [18]: 77.8%
- viability, T/C [19]: 84.5%
- viability, T/C [20]: 83.4%
- viability, T/C [21]: 93%
- viability, T/C [22]: 75.4%
- viability, T/C [23]: 79.6%
- viability, T/C [24]: 80.8%
- viability, T/C [25]: 92.1%
- viability, T/C [26]: 85.8%
- viability, T/C [27]: 88.2%
- viability, T/C [28]: 86.4%
- viability, T/C [29]: 75%
- viability, T/C [30]: 77.7%
- viability, T/C [31]: 85.4%
- viability, T/C [32]: 66.8%
- viability, T/C [33]: 74.8%
- viability, T/C [34]: 66.3%
- viability, T/C [35]: 94.8%
- viability, T/C [36]: 82.3%

Structure (SMILES): COc1ccc([C@@H](O)c2cc(-c3ncnc4cc(N5CCOCC5)ccc34)c(F)cc2Cl)nn1 + CN(C)c1ccc(Nc2c3ccc(NC(=O)CCN4CCCC4)cc3nc3cc(NC(=O)CCN4CCCC4)ccc23)cc1
- IC50 (second compound 0.0316 µM): > 10 µM
- IC50 (second compound 0.1 µM): > 10 µM
- IC50 (second compound 0.316 µM): 9.44 µM
- IC50 (second compound 1 µM): > 10 µM
- IC50 (second compound 3.16 µM): > 10 µM
- IC50 (second compound 10 µM): > 10 µM
- viability, T/C [1]: 96.4%
- viability, T/C [2]: 92.5%
- viability, T/C [3]: 80.6%
- viability, T/C [4]: 71.3%
- viability, T/C [5]: 81.7%
- viability, T/C [6]: 64.9%
- viability, T/C [7]: 89.2%
- viability, T/C [8]: 75.3%
- viability, T/C [9]: 95%
- viability, T/C [10]: 72.8%
- viability, T/C [11]: 86.2%
- viability, T/C [12]: 60.1%
- viability, T/C [13]: 89.1%
- viability, T/C [14]: 81%
- viability, T/C [15]: 76.4%
- viability, T/C [16]: 78.2%
- viability, T/C [17]: 82.1%
- viability, T/C [18]: 48.3%
- viability, T/C [19]: 81.2%
- viability, T/C [20]: 83.2%
- viability, T/C [21]: 97.6%
- viability, T/C [22]: 62.4%
- viability, T/C [23]: 77.4%
- viability, T/C [24]: 66.6%
- viability, T/C [25]: 87.3%
- viability, T/C [26]: 83.8%
- viability, T/C [27]: 81.2%
- viability, T/C [28]: 85%
- viability, T/C [29]: 102%
- viability, T/C [30]: 61.3%
- viability, T/C [31]: 89.3%
- viability, T/C [32]: 72.6%
- viability, T/C [33]: 90.1%
- viability, T/C [34]: 74.5%
- viability, T/C [35]: 76.4%
- viability, T/C [36]: 79.4%

Structure (SMILES): CC1COCCN1c1cc(C2(O)CC3CCC(C2)O3)c2cnn(-c3ccn[nH]3)c2n1 (stereo unspecified) + Cc1[nH]c2ccc(F)cc2c1-c1nc2c3cccnc3c3ncccc3c2[nH]1
- IC50 (second compound 0.0316 µM): 0.626 µM
- IC50 (second compound 0.1 µM): 0.509 µM
- IC50 (second compound 0.316 µM): 0.293 µM
- IC50 (second compound 1 µM): 0.248 µM
- IC50 (second compound 3.16 µM): 0.035 µM
- IC50 (second compound 10 µM): < 0.0316 µM
- viability, T/C [1]: 81.3%
- viability, T/C [2]: 73.1%
- viability, T/C [3]: 71.7%
- viability, T/C [4]: 35%
- viability, T/C [5]: 25.7%
- viability, T/C [6]: 17.6%
- viability, T/C [7]: 88.2%
- viability, T/C [8]: 85.7%
- viability, T/C [9]: 59.6%
- viability, T/C [10]: 34.1%
- viability, T/C [11]: 25.6%
- viability, T/C [12]: 16.6%
- viability, T/C [13]: 71.5%
- viability, T/C [14]: 88.2%
- viability, T/C [15]: 47.8%
- viability, T/C [16]: 35.2%
- viability, T/C [17]: 24.7%
- viability, T/C [18]: 16.2%
- viability, T/C [19]: 71.7%
- viability, T/C [20]: 65.5%
- viability, T/C [21]: 45.4%
- viability, T/C [22]: 25.4%
- viability, T/C [23]: 16.4%
- viability, T/C [24]: 9.51%
- viability, T/C [25]: 52%
- viability, T/C [26]: 28.9%
- viability, T/C [27]: 11.3%
- viability, T/C [28]: 5.76%
- viability, T/C [29]: 3.99%
- viability, T/C [30]: 3.21%
- viability, T/C [31]: 31.2%
- viability, T/C [32]: 16.5%
- viability, T/C [33]: 8.68%
- viability, T/C [34]: 2.7%
- viability, T/C [35]: 2.23%
- viability, T/C [36]: 2.03%
